Measurements taken from patent publication US7407940B2, “Antimicrobial hexapeptides” (Helix BioMedix Inc., priority 2005, dated 2008).
Read-outs that look alike come from different tables or passages of the source. Where a SMILES comes first, the peptide text is derived from it. Where no end group is shown, it is not given here. [ ]: non-standard residue; d: D form. The star is where a group is joined. 2Nal = N[C@@H](Cc1ccc2ccccc2c1)C(=O)O; Tridecanoyl = CCCCCCCCCCCCC(=O)*; Myristoyl = CCCCCCCCCCCCCC(=O)*; Lauroyl = CCCCCCCCCCCC(=O)*; code J = not defined here; Octanoyl = CCCCCCCC(=O)*

Columns and labels:
[1] = set-up: species or system Sprague-Dawley rats; conditions: rat, in vivo
Description: Each wound observed at each dressing change and the wound surface and tissue reaction assessed. There were 5 parameters of wound status that were checked: • i. Wound Film Security—Was the adhesive film used to cover the wound still completely adherent to the skin around the wound? • ii. Wound Surface—What was the exact visual appearance of the wound surface? • iii. Amount of Exudate—How much exudate was trapped under the film? In many cases, accumulated exudate causes the film to lose adherence and the exudates will escape. • iv. Severity of Tissue Reaction—A subjective rating of extent of tissue reaction on a scale of 1 (minimal), 2 (moderate), 3 (extensive). • v. % of Tissue Involved—In some situations, the wound surface contained denatures, friable tissue that could be wiped off with pressure applied to gauze. This test was used to better differentiate denatured tissue from viscous exudates.

[2] = tested on: Candida albicans; type: cell-based
Description: (§1) MICs (minimal inhibitory concentrations) were determined for the hexapeptides of interest using a slightly modified version of the NCCLS (National Committee for Clinical Laboratory Standards) broth microdilution method as described previously (Steinberg et al., AAC 41: 1738, 1997). Briefly, antimicrobial agents were prepared as 10× concentrates in the most appropriate solvent. For the hexapeptide, 0.01% acetic acid containing 0.2% bovine serum albumin as a carrier protein was used. Inocula were prepared by resuspending colonies from a BAP (please spell out this term) in medium and adjusting the suspension to match that of a 0.5 McFarland standard. The suspension was diluted into fresh medium (as recommended by NCCLS for the organism) to give 2×10^5 to 7×10^5 CFU/ml for bacteria or 2×10^3 to 7×10^3 CFU/ml for Candida. After dispensing 100 μl aliquots of the microbial suspension into each well of a 96-well polypropylene microtiter plate, 11 μl of test compound was added. The MIC was defined as the lowest concentration of drug which prevented visible turbidity after 16 to 20 hours (bacteria) or 46 to 50 hours (Candida) at 35° C.

[3] = tested on: Staphylococcus aureus; type: cell-based
Description: as §1

[4] = tested on: Pseudomonas aeruginosa; type: cell-based
Description: as §1

[5] = tested on: S. aureus MRSA; assay: Kill kinetics in lipid (liposome) environment with or without serum; type: cell-based; conditions: peptide 0.5 mg/ml; liposomes, presence or absence of serum
Description: Referring to FIG. 8, not only does lipidation improve the activity of hexapeptides in serum it improves activity in a lipid environment which is a mimic of the human acne lesion environment. The human sebaceous gland secretion, also called sebum, contains squalene, cholesterol, cholesterol esters, wax esters, and triglycerides in which a large […] of P. acnes appears to take advantage of this environment and hydrolyzes certain sebaceous lipids. The pre-pubertal and pubertal increase in sebum secretion is almost certainly involved in the pathogenesis of adolescent acne. The activity of SEQ ID NO: 55 was studied in this environment compared to P64(SEQ ID NO:90), a traditional cationic antimicrobial peptide. Due to the fact that most lipids are water insoluble, peptide-liposomes composed of phosphatidylcholine, phosphatidylglycerol and cholesterol in the molar ratio of 7:2:1 in saline were used and kill kinetics of the peptides were assessed in the presence or absence of serum.

[6] = tested on: Trychophyton rubrum; assay: MIC100 against dermatophyte Trychophyton rubrum; type: cell-based; conditions: T. rubrum; at 10 days
Description: (§2) In order to compare the activity of various antimicrobial peptides, including hexapeptide SEQ ID NO:1 (P0666), MIC were determined against the dermatophytes Trychophyton rubrum and Trychophyton mentagrophytes. The concentration of samples investigated were: 2000, 1000, 500, 250 and 125 μg/ml, respectively. The medium used was modified Sabouraud's media without agar. For a 100 mL of modified Sabouraud medium: 3 g of Sabouraud's dextrose broth (Difco) was mixed into 100 mL of deionized water. The pH was adjusted to 7.0 with 0.1 N NaOH. The solution was autoclaved for thirty minutes. 940 μL of medium was poured into sterile 20 mL test tubes with plastic caps and was allowed to cool.
(§3) 50 μL of […] was added to each 20 mL test tube to make the required concentration. A control tube was composed of 50 μL of saline without sample. For the MIC experiments,
(§4) 10 μL of organism suspended in saline was added to the each 20 mL test tube and vortexed slightly. Each of the test tubes was covered in parafilm and maintained on a shaker at 27° C. at a speed of approximately 100 rpm.
(§5) The growth/inhibition of the organism was observed on a daily basis. […] The Minimum Inhibition Concentration (MIC100) for compounds F1 to F10 against fungus Trychophyton rubrum and Trychophyton mentagrophytes at 10 days.

[7] = tested on: Trychophyton mentagrophytes; assay: MIC100 against dermatophyte Trychophyton mentagrophytes; type: cell-based; conditions: T. mentagrophytes; at 10 days
Description: as §2, §3, §4, §5

[8] = tested on: S. epidermidis ATCC12228; assay: MIC, broth microdilution, S. epidermidis; type: cell-based; set-up: unit not given beside the values; conditions: #86: S. epidermidis ATCC12228
Description: as §1

[9] = tested on: Lipoteichoic acid (LTA); assay: LTA binding assay; conditions: FIG. 7
Description: Lipoteichoic acid (LTA) is a common cell wall component of gram-positive bacteria including organisms such as S. aureus and P. acnes. The release of LTA during infection can lead to the release of mediators of the host inflammatory response which in turn can result in sepsis (septic shock). For example, when injected into animals, LTA can elicit many of the characteristic features of septic shock, including cytokine production, leukocytopenia, circulatory failure, multiple-organ dysfunction syndrome, and mortality.

Molecule: CCCCCCCC(=O)N[C@@H](CCCCN)C(=O)N[C@@H](Cc1ccccc1)C(=O)N[C@@H](CCCCN)C(=O)N[C@@H](Cc1c[nH]c2ccccc12)C(=O)N1CCC[C@H]1C(=O)N[C@@H](Cc1c[nH]c2ccccc12)C(N)=O [SEQ ID NO: 55 (P-1032)] (Octanoyl-KFKWPW-NH2)
- Tissue reaction severity [1]: 1

Molecule: CC(C)C[C@H](NC(=O)[C@H](C)NC(=O)[C@H](CC(C)C)NC(=O)[C@H](CCCCN)NC(=O)[C@H](C)NC(=O)[C@H](CC(C)C)NC(=O)[C@H](CCCCN)NC(=O)[C@H](CCCCN)NC(=O)[C@H](C)NC(=O)[C@H](CC(C)C)NC(=O)[C@H](CCCCN)NC(=O)[C@H](C)NC(=O)[C@H](CC(C)C)NC(=O)[C@H](CCCCN)NC(=O)[C@H](CCCCN)NC(=O)[C@H](C)NC(=O)[C@@H](N)C(C)C)C(N)=O [SEQ ID NO: 88, VAKKLAKLAKKLAKLAL-NH2]
- Amount of exudate [1]: S/y
- tissue reaction (in words) [1]: mild to moderate

Molecule: CCCCCCCCCCCCCC(=O)N[C@@H](CCCCN)C(=O)N[C@@H](Cc1ccccc1)C(=O)N[C@@H](CCCCN)C(=O)N[C@@H](Cc1c[nH]c2ccccc12)C(=O)N1CCC[C@H]1C(=O)N[C@@H](Cc1c[nH]c2ccccc12)C(N)=O [compound 77] (Myristoyl-KFKWPW-NH2)
- Minimal Inhibitory Concentrations (Mics) [2]: 4-8 Mg/Ml
- Minimal Inhibitory Concentrations (Mics) [3]: 8-16 Mg/Ml
- Minimal Inhibitory Concentrations (Mics) [4]: 64-128 Mg/Ml

Molecule: CCCCCCCCCCCCC(=O)N[C@@H](CCCCN)C(=O)N[C@@H](Cc1ccccc1)C(=O)N[C@@H](CCCCN)C(=O)N[C@@H](Cc1c[nH]c2ccccc12)C(=O)N1CCC[C@H]1C(=O)N[C@@H](Cc1c[nH]c2ccccc12)C(N)=O [compound 80] (Tridecanoyl-KFKWPW-NH2)
- Minimal Inhibitory Concentrations (Mics) [3]: 2-4 Mg/Ml

Molecule: FAKALKALLKALKAL-NH2 [SEQ ID NO: 90]
- kill kinetics in lipid environment (in words) [5]: shown to be effective
- MIC100 [6]: 1000 µg/mL
- MIC100 [7]: 500 µg/mL

Molecule: H-KWKWFW-NH2 [compound 3]
- Minimal Inhibitory Concentrations (Mics) [2]: 64-64 Mg/Ml
- Minimal Inhibitory Concentrations (Mics) [3]: 32-64 Mg/Ml

Molecule: H-RFKWFW-NH2 [compound 7]
- Minimal Inhibitory Concentrations (Mics) ([2]; C. albicans strain 105): 64-128^1 Mg/Ml
- Minimal Inhibitory Concentrations (Mics) [3]: 64-128 Mg/Ml

Molecule: KWKWJW-NH2 (KWKW[code J]W-NH2; reading uncertain; also: printed as KWKWJW-NH2) [SEQ ID NO: 60]
- MIC [8]: >128

Molecule: KWKWZW-NH2 (KWKW[2Nal]W-NH2) [SEQ ID NO: 63]
- MIC [8]: 2

Molecule: OCT-KWKWFW-NH2 (Octanoyl-KWKWFW-NH2; SMILES CCCCCCCC(=O)N[C@@H](CCCCN)C(=O)N[C@@H](Cc1c[nH]c2ccccc12)C(=O)N[C@@H](CCCCN)C(=O)N[C@@H](Cc1c[nH]c2ccccc12)C(=O)N[C@@H](Cc1ccccc1)C(=O)N[C@@H](Cc1c[nH]c2ccccc12)C(N)=O) [SEQ ID NO: 56]
- MIC [8]: 4

Molecule: SEQ ID NO:72 (Lauroyl-KFKWPW-NH2; SMILES CCCCCCCCCCCC(=O)N[C@@H](CCCCN)C(=O)N[C@@H](Cc1ccccc1)C(=O)N[C@@H](CCCCN)C(=O)N[C@@H](Cc1c[nH]c2ccccc12)C(=O)N1CCC[C@H]1C(=O)N[C@@H](Cc1c[nH]c2ccccc12)C(N)=O)
- LTA binding (in words) [9]: binds LTA to the same degree as a typical highly charged alpha-helical amphipathic peptide

Molecule: SEQ ID NO:83 (Lauroyl-[dK][dF][dK][dW][dP][dW]-NH2; SMILES CCCCCCCCCCCC(=O)N[C@H](CCCCN)C(=O)N[C@H](Cc1ccccc1)C(=O)N[C@H](CCCCN)C(=O)N[C@H](Cc1c[nH]c2ccccc12)C(=O)N1CCC[C@@H]1C(=O)N[C@H](Cc1c[nH]c2ccccc12)C(N)=O)
- LTA binding (in words) [9]: fail to bind LTA
